Measurements published in patent publication US20120164242A1, “NOVEL METHODS FOR MODULATING MELANIN PRODUCTION” (priority 2010, published 2012).

Tested on: melanogenesis related genes
Test: RT-PCR mRNA level of melanogenesis related genes in B16-F10 cells
Format: cell-based, mouse
Details: 100 μM, three days
Method: To determine whether THSG had similar effects as the PMT extract on the induction of melanin related gene expression, B16-F10 cells were cultured in medium containing PMT extract (10 μg/mL), THSG (10 μg/mL), naringenin (100 μM) for three days and RT-PCR was performed to analyze melanin biosynthesis related gene expression using the protocol as described in Example 4 above.

O=C1C[C@@H](c2ccc(O)cc2)Oc2cc(O)cc(O)c21 [naringenin]
mRNA level of melanogenesis related genes: no increase
